Assay type in all cases: cell-based
For assay [1], the target named is T1, KRAS protein (Homo sapiens, UniProt P01116).
T1 construct: engineered to express a Hobbit-tagged endogenous KRAS protein; endogenous in cells; host or cells: HEK293, endogenous KRAS locus engineered with a HiBiT tag
Kind of assay: HIBIT degradation assay, HEK293 cells. The settings on record: 24 h, HiBiT signal normalized to CTG signal; for Effect on KRAS Protein Degradation, HEK293, 3 μM: compound at 3 μM. Here is the method: (§1) HEK293, MIA PaCa-2, AsPc-1, SW620, and H647 cells were engineered to express a […] endogenous KRAS protein. The HEK293 and MIA PaCa-2 cells were cultured in DMEM media supplemented with 10% fetal bovine serum, streptomycin, and penicillin. The AsPc-1, SW620, and H647 were cultured in RPMI media supplemented with 10% fetal bovine serum, streptomycin, and penicillin. The cells were seeded in white walled 96-well plates at 20,000 cells/well in 100 μL culture media in duplicate plates. After incubated at 37° C. under 5% CO2 overnight, the cells were treated with DMSO (control) or a compound, followed by the addition of 100 μL culture media to each well. After the cells were incubated for 24 h at 37° C. under 5% C02, 150 μL media were removed from each well and 50 μL NANOGLO-LGBIT lytic reagent were added to each well, and 50 μL CELLTITER-GLO (CTG) reagent was added to the duplicate plate. Following a 10-minute incubation with shaking, luminescence was measured using a Perkin Elmer ENVISION multimode plate reader. HiBiT signal was normalized to CTG signal. The results are summarized in Table 3, where “A” represents a percentage degradation value of no less than 50%; “B” represents a percentage degradation value of less than 50% and no less than 25%; “C” represents a percentage degradation value of less than 25% and no less than 10%; and “D” represents a percentage degradation value of less than 10%.

For the next assay, the system named is Molm-13 cells. Kind of assay: Cell viability assay, inhibition of Molm-13 cells. The settings on record: Homo sapiens; for inhibition at 1 µM: compound at 1 μM; for inhibition at 3 µM: compound at 3 μM. Here is the method: [Worded in the source for another cell line; this cell line is reported under the same test.] (§2) H358, H23, SW48, and AsPC-1 cells were cultured in RPMI 1640 media supplemented with 10% fetal bovine serum, streptomycin, and penicillin. Lovo and SW480 cells were cultured in DMEM media supplemented with 10% fetal bovine serum, streptomycin, and penicillin. The cell lines were plated in their respective medium supplemented with 2.5% fetal bovine serum, streptomycin, and penicillin. All cell lines were plated in white walled 96-well plates at 2,000 cells/well or 384-well plates at 500 cells/well, except Lovo, which were plated at 4,000 or 1,000 cells/well, respectively. The cells were incubated in DMSO (control) or a compound for 3 days at 37° C. under 5% C02. A CELLTITER-GLO® reagent (100 μL) was then added to each well. After a 10 min incubation with shaking, luminescence was measured using an ENVISION® multimode plate reader. IC50 values are summarized in Table 1 and percentages of inhibition are summarized in Table 2, where compound T1 is 2-(4-(2-methyl-3,5-diphenylpyrazolo[1,5-a]pyrimidin-7-yl)piperazin-1-yl)ethan-1-ol.

A further assay relates to Lovo (G13D) cells. The experiment in a line: Cell viability assay (CELLTITER-GLO), Lovo cells. As to conditions: 3 days incubation, 2.5% fetal bovine serum, read-out: Inhibition of Cancerous Cells IC50 (μM) Lovo (G13D). Here is the method: as §2
For another assay, the system named is SW480 (G12V) cells. The experiment in a line: Cell viability assay (CELLTITER-GLO), SW480 cells. As to conditions: 3 days incubation, 2.5% fetal bovine serum, read-out: Inhibition of Cancerous Cells IC50 (μM) SW480 (G12V). As for the experimental part: as §2
The test system of the next assay is SW48 (wt) cells. The experiment in a line: Cell viability assay (CELLTITER-GLO), SW48 cells. As to conditions: 3 days incubation, 2.5% fetal bovine serum, read-out: Inhibition of Cancerous Cells IC50 (μM) SW48 (wt). As for the experimental part:
as §2

Another assay concerns AsPC-1 (G12D) cells. Kind of assay: Cell viability assay (CELLTITER-GLO), AsPC-1 cells. The settings on record: 3 days incubation, 2.5% fetal bovine serum, read-out: Inhibition of Cancerous Cells IC50 (μM) AsPC-1 (G12D). Here is the method: as §2
Another assay relates to H358 (G12C) cells. Kind of assay: Cell viability assay (CELLTITER-GLO), H358 cells. As to conditions: 3 days incubation, 2.5% fetal bovine serum, read-out: Inhibition of Cancerous Cells IC50 (μM) H358 (G12C). Here is the method: as §2
Assay [2] concerns the target T2, KRAS protein (Homo sapiens, UniProt P01116, G12D).
T2 construct: engineered to express a Hobbit-tagged endogenous KRAS protein; endogenous in cells; host or cells: AsPC-1, endogenous KRAS locus engineered with a HiBiT tag
Kind of assay: HIBIT degradation assay, AsPC-1 cells. The settings on record: 24 h, HiBiT signal normalized to CTG signal. As for the experimental part: as §1

Where two headings read alike, the source gives them in different places. Bounds are passed on as bounds.

T1 sequence (P01116 1-188 isoform P01116-2): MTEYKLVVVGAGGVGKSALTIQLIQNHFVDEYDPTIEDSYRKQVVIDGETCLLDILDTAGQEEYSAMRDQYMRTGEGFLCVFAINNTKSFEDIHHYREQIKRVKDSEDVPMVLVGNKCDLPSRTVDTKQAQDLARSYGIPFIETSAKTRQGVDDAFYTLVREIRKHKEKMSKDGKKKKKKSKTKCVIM
T2 sequence (P01116 1-188 isoform P01116-2 G12D): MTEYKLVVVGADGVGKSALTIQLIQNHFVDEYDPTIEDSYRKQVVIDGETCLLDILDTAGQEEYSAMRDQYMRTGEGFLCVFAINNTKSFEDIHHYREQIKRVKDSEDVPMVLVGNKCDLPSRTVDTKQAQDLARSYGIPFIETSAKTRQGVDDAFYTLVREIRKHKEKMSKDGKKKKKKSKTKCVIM

Consider `Cc1nn2c(N3CCN(CCO)CC3)cc(-c3cccc(CCCCCCCN4CCN(C(=O)COc5cccc(N6CCC(=O)NC6=O)c5)CC4)c3)nc2c1-c1ccccc1` [Compound C2, 1-(3-(2-(4-(7-(3-(7-(4-(2-Hydroxyethyl)piperazin-1-yl)-2-methyl-3-phenyl-pyrazolo[1,5-a]pyrimidin-5-yl)phenyl)heptyl)piperazin-1-yl)-2-oxoethoxy)phenyl)dihydro-pyrimidine-2,4(1H,3H)-dione], for which, at KRAS protein [1], the “Effect on KRAS Protein Degradation, HEK293, 3 μM” value was “B (a percentage degradation value of less than 50% and no less than 25%)”.

In the assay on Molm-13 cells, `Cc1nn2c(N3CCN(CCO)CC3)cc(-c3ccccc3)nc2c1-c1cccc(CCCCCN2CCN(C(=O)COc3cccc(N4CCC(=O)NC4=O)c3)CC2)c1` [Compound C10, 1-(3-(2-(4-(5-(3-(7-(4-(2-Hydroxyethyl)piperazin-1-yl)-2-methyl-5-phenyl-pyrazolo[1,5-a]pyrimidin-3-yl)phenyl)pentyl)piperazin-1-yl)-2-oxoethoxy)phenyl)dihydro-pyrimidine-2,4(1H,3H)-dione] had an inhibition at 1 µM of 29% and an inhibition at 3 µM of 98%.

In the assay with Molm-13 cells, `Cc1nn2c(N3CCN(CCO)CC3)cc(-c3cccc(CCCN4CCN(C(=O)CNc5ccc6c(C7CCC(=O)NC7=O)nn(C)c6c5)CC4)c3)nc2c1-c1ccccc1` (stereo not drawn) [Compound D1, 3-(6-((2-(4-(3-(3-(7-(4-(2-Hydroxyethyl)piperazin-1-yl)-2-methyl-3-phenyl-pyrazolo[1,5-a]pyrimidin-5-yl)phenyl)propyl)piperazin-1-yl)-2-oxoethyl)amino)-1-methyl-1H-indazol-3-yl)piperidine-2,6-dione] had an inhibition at 1 µM of 24% and an inhibition at 3 µM of 98%.

For the compound `Cc1nn2c(N3CCN(CCO)CC3)cc(-c3ccccc3)nc2c1-c1cccc(CCCN2CCN(C(=O)CNc3cccc4c(C5CCC(=O)NC5=O)nn(C)c34)CC2)c1` (stereo not drawn) [Compound D10, 3-(7-((2-(4-(3-(3-(7-(4-(2-Hydroxyethyl)piperazin-1-yl)-2-methyl-5-phenyl-pyrazolo[1,5-a]pyrimidin-3-yl)phenyl)propyl)piperazin-1-yl)-2-oxoethyl)amino)-1-methyl-1H-indazol-3-yl)piperidine-2,6-dione], the IC50 with Lovo (G13D) cells (Homo sapiens, 72 h) came out at 0.87 µM; with SW480 (G12V) cells (Homo sapiens, 72 h), 0.63 µM; in the assay on SW48 (wt) cells (Homo sapiens, 72 h), 1.3 µM; in the assay with AsPC-1 (G12D) cells (Homo sapiens, ASPC1, 72 h) it was 1.4 µM; with H358 (G12C) cells (Homo sapiens, NCI-H358, 72 h) it was 2.4 µM.

`Cc1nn2c(N3CCN(CCO)CC3)cc(-c3ccccc3)nc2c1-c1cccc(CCCCCN2CCN(C(=O)CNc3cccc4c(C5CCC(=O)NC5=O)nn(C)c34)CC2)c1` (stereo not drawn) [Compound D11, 3-(7-((2-(4-(5-(3-(7-(4-(2-Hydroxyethyl)piperazin-1-yl)-2-methyl-5-phenyl-pyrazolo[1,5-a]pyrimidin-3-yl)phenyl)pentyl)piperazin-1-yl)-2-oxoethyl)amino)-1-methyl-1H-indazol-3-yl)piperidine-2,6-dione]: the IC50 worked out at 0.73 µM with Lovo (G13D) cells (Homo sapiens, 72 h); 0.48 µM in the assay with SW480 (G12V) cells (Homo sapiens, 72 h); 0.84 µM with SW48 (wt) cells (Homo sapiens, 72 h); 1.4 µM in the assay on AsPC-1 (G12D) cells (Homo sapiens, ASPC1, 72 h); 1.2 µM in the assay on H358 (G12C) cells (Homo sapiens, NCI-H358, 72 h).

Take `Cc1nn2c(N3CCN(CCO)CC3)cc(-c3ccccc3)nc2c1-c1cccc(CCCCCCCN2CCN(C(=O)CNc3cccc4c(C5CCC(=O)NC5=O)nn(C)c34)CC2)c1` (stereo not drawn) [Compound D12, 3-(7-((2-(4-(7-(3-(7-(4-(2-Hydroxyethyl)piperazin-1-yl)-2-methyl-5-phenyl-pyrazolo[1,5-a]pyrimidin-3-yl)phenyl)heptyl)piperazin-1-yl)-2-oxoethyl)amino)-1-methyl-1H-indazol-3-yl)piperidine-2,6-dione]: the IC50 came to 0.92 µM with Lovo (G13D) cells (Homo sapiens, 72 h); 0.47 µM in the assay on SW480 (G12V) cells (Homo sapiens, 72 h); 0.96 µM with SW48 (wt) cells (Homo sapiens, 72 h); 1.4 µM in the assay with AsPC-1 (G12D) cells (Homo sapiens, ASPC1, 72 h); 1.2 µM in the assay on H358 (G12C) cells (Homo sapiens, NCI-H358, 72 h).

As to `Cc1nn2c(N3CCN(CCO)CC3)cc(-c3ccccc3)nc2c1-c1cccc(CCCN2CCN(C(=O)CNc3ccc4c(N5CCC(=O)NC5=O)nn(C)c4c3)CC2)c1` [Compound D13, 1-(6-((2-(4-(3-(3-(7-(4-(2-Hydroxyethyl)piperazin-1-yl)-2-methyl-5-phenyl-pyrazolo[1,5-a]pyrimidin-3-yl)phenyl)propyl)piperazin-1-yl)-2-oxoethyl)amino)-1-methyl-1H-indazol-3-yl)dihydropyrimidine-2,4(1H,3H)-dione], the IC50 stood at 0.66 µM with Lovo (G13D) cells (Homo sapiens, 72 h); 0.76 µM in the assay on SW480 (G12V) cells (Homo sapiens, 72 h); 2 µM in the assay on SW48 (wt) cells (Homo sapiens, 72 h); 2.3 µM with AsPC-1 (G12D) cells (Homo sapiens, ASPC1, 72 h); 1.1 µM in the assay with H358 (G12C) cells (Homo sapiens, NCI-H358, 72 h).

For the compound `Cc1nn2c(N3CCN(CCO)CC3)cc(-c3ccccc3)nc2c1-c1cccc(CCCCCN2CCN(C(=O)CNc3ccc4c(N5CCC(=O)NC5=O)nn(C)c4c3)CC2)c1` [Compound D14, 1-(6-((2-(4-(5-(3-(7-(4-(2-Hydroxyethyl)piperazin-1-yl)-2-methyl-5-phenyl-pyrazolo[1,5-a]pyrimidin-3-yl)phenyl)pentyl)piperazin-1-yl)-2-oxoethyl)amino)-1-methyl-1H-indazol-3-yl)dihydropyrimidine-2,4(1H,31H)-dione], the IC50 was 0.62 µM with Lovo (G13D) cells; 1.1 µM in the assay on SW480 (G12V) cells; more than 10 µM in the assay on SW48 (wt) cells; more than 10 µM in the assay on AsPC-1 (G12D) cells; 2.2 µM in the assay on H358 (G12C) cells.

`Cc1nn2c(N3CCN(CCO)CC3)cc(-c3ccccc3)nc2c1-c1cccc(CCCCCCCN2CCN(C(=O)CNc3ccc4c(N5CCC(=O)NC5=O)nn(C)c4c3)CC2)c1` [Compound D15, 1-(6-((2-(4-(7-(3-(7-(4-(2-Hydroxyethyl)piperazin-1-yl)-2-methyl-5-phenyl-pyrazolo[1,5-a]pyrimidin-3-yl)phenyl)heptyl)piperazin-1-yl)-2-oxoethyl)amino)-1-methyl-1H-indazol-3-yl)dihydropyrimidine-2,4(1H,3H)-dione]: the IC50 in the assay on Lovo (G13D) cells (Homo sapiens, 72 h) worked out at 0.64 µM; with SW480 (G12V) cells (Homo sapiens, 72 h) it was 0.56 µM; in the assay on SW48 (wt) cells (Homo sapiens, 72 h), 1.1 µM; with AsPC-1 (G12D) cells (Homo sapiens, ASPC1, 72 h), 1.4 µM; with H358 (G12C) cells (Homo sapiens, NCI-H358, 72 h) it was 1.3 µM.

For `Cc1nn2c(N3CCN(CCO)CC3)cc(-c3ccccc3)nc2c1-c1cccc(CCCN2CCN(C(=O)CNc3cccc4c(N5CCC(=O)NC5=O)nn(C)c34)CC2)c1` [Compound D16, 1-(7-((2-(4-(3-(3-(7-(4-(2-Hydroxyethyl)piperazin-1-yl)-2-methyl-5-phenyl-pyrazolo[1,5-a]pyrimidin-3-yl)phenyl)propyl)piperazin-1-yl)-2-oxoethyl)amino)-1-methyl-1H-indazol-3-yl)dihydropyrimidine-2,4(1H,3H)-dione], the “Effect on KRAS Protein Degradation, HEK293, 3 μM” value at KRAS protein [1] is “C (a percentage degradation value of less than 25% and no less than 10%)”. Further, the “Effect on KRAS Protein Degradation, HEK293, 5 μM” value on KRAS protein [1] (compound at 5 μM) was “C (a percentage degradation value of less than 25% and no less than 10%)”. Besides, at KRAS protein [2] (compound at 3 μM), the “Effect on KRAS Protein Degradation, AsPC-1, 3 μM” value was “C (a percentage degradation value of less than 25% and no less than 10%)”. Further, on KRAS protein [2] (compound at 5 μM), the “Effect on KRAS Protein Degradation, AsPC-1, 5 μM” value was “D (a percentage degradation value of less than 10%)”.

Source of the values: US20240190883A1, “KRAS PROTEIN DEGRADERS, PHARMACEUTICAL COMPOSITIONS THEREOF, AND THEIR THERAPEUTIC APPLICATIONS” (BioTheryX, Inc., priority 2021, published 2024).
